Reference: patent US10670605B2, “Cysteine reactive probes and uses thereof” (The Scripps Research Institute, priority 2015, dated 2020)

Assays:
Experiment in all cases: Competitive isoTOP-ABPP in situ (fragment-treated cells)
Type in all cases: cell-based
[1] = target: cysteines in MDA-MB-231 and Ramos cells (Homo sapiens, UniProt Q14980); settings: 200 μM, insitu, 231
[2] = target: cysteines in MDA-MB-231 and Ramos cells (Homo sapiens, UniProt Q00765)
[3] = target: T1, cysteines in MDA-MB-231 and Ramos cells (Homo sapiens, UniProt Q2NL82)
T1 sequence (Q2NL82 1-804): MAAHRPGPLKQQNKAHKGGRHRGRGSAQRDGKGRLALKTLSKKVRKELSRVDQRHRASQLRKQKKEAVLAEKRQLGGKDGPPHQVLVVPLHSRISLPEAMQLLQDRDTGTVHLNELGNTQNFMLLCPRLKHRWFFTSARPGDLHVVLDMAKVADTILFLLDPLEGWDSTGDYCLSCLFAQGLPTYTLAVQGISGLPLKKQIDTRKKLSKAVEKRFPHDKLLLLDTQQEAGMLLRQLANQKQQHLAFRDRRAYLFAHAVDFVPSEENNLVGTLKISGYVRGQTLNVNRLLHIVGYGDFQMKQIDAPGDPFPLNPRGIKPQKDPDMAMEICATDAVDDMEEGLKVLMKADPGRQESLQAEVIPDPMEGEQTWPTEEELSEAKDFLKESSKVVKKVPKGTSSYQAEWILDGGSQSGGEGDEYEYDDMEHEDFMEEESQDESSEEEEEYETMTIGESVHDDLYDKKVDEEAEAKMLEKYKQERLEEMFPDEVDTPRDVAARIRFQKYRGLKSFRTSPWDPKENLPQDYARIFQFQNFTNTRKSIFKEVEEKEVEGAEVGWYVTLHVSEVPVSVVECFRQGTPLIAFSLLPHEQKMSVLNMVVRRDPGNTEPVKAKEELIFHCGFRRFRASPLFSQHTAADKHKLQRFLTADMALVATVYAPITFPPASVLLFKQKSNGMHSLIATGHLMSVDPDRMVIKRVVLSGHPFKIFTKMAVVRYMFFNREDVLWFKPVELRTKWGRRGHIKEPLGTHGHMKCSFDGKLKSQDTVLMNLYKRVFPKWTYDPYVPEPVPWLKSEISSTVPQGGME

[4] = target: T2, cysteines in MDA-MB-231 and Ramos cells (Homo sapiens, UniProt Q8WV74)
T2 sequence (Q8WV74 1-236): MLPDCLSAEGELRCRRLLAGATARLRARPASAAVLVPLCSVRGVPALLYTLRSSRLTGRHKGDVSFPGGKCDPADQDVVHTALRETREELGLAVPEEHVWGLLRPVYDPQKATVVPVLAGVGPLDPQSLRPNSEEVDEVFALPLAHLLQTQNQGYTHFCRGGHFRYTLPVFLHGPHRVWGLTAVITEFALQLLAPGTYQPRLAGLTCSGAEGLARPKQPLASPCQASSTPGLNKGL

[5] = target: cysteines in MDA-MB-231 and Ramos cells (Homo sapiens, UniProt P68366)
[6] = target: cysteines in MDA-MB-231 and Ramos cells (Homo sapiens, UniProt Q9UJW0)
[7] = target: cysteines in MDA-MB-231 and Ramos cells (Homo sapiens, UniProt Q96FX7)
[8] = target: T3, cysteines in MDA-MB-231 and Ramos cells (Homo sapiens, UniProt Q9NY27)
T3 sequence (Q9NY27 1-417): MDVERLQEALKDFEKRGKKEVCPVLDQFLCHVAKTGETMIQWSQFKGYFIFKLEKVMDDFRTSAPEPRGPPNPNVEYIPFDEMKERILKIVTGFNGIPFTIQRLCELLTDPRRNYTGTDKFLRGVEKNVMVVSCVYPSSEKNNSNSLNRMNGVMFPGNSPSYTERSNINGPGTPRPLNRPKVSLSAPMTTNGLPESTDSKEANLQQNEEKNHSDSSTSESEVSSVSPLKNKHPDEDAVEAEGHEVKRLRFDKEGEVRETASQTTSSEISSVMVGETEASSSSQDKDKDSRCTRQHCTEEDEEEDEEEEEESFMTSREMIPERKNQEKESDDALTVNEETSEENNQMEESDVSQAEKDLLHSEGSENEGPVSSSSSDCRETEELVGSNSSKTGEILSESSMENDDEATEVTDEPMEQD

[9] = target: cysteines in MDA-MB-231 and Ramos cells (Homo sapiens, UniProt P51610)
[10] = target: cysteines in MDA-MB-231 and Ramos cells (Homo sapiens, UniProt P46109); settings: 200 μM, insitu
Chain of cysteines in MDA-MB-231 and Ramos cells (Homo sapiens, UniProt P46109) (P46109 whole entry): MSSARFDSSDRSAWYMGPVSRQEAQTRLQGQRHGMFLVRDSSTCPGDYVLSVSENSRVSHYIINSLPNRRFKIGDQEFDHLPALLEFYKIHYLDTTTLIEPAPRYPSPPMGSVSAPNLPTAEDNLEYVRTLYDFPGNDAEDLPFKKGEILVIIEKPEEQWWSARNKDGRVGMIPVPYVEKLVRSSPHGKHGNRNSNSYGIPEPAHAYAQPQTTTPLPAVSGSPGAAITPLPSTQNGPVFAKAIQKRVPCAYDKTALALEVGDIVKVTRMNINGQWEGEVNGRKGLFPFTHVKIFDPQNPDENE

Chain of cysteines in MDA-MB-231 and Ramos cells (Homo sapiens, UniProt Q96FX7) (Q96FX7 whole entry): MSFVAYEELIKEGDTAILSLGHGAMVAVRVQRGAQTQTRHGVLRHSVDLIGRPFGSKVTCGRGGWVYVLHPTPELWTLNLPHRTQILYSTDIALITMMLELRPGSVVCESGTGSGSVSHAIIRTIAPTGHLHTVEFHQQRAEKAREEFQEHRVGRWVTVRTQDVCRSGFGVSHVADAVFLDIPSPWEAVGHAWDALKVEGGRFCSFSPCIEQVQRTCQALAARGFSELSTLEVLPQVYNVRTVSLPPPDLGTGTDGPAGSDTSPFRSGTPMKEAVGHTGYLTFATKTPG
Chain of cysteines in MDA-MB-231 and Ramos cells (Homo sapiens, UniProt P51610) (P51610 whole entry): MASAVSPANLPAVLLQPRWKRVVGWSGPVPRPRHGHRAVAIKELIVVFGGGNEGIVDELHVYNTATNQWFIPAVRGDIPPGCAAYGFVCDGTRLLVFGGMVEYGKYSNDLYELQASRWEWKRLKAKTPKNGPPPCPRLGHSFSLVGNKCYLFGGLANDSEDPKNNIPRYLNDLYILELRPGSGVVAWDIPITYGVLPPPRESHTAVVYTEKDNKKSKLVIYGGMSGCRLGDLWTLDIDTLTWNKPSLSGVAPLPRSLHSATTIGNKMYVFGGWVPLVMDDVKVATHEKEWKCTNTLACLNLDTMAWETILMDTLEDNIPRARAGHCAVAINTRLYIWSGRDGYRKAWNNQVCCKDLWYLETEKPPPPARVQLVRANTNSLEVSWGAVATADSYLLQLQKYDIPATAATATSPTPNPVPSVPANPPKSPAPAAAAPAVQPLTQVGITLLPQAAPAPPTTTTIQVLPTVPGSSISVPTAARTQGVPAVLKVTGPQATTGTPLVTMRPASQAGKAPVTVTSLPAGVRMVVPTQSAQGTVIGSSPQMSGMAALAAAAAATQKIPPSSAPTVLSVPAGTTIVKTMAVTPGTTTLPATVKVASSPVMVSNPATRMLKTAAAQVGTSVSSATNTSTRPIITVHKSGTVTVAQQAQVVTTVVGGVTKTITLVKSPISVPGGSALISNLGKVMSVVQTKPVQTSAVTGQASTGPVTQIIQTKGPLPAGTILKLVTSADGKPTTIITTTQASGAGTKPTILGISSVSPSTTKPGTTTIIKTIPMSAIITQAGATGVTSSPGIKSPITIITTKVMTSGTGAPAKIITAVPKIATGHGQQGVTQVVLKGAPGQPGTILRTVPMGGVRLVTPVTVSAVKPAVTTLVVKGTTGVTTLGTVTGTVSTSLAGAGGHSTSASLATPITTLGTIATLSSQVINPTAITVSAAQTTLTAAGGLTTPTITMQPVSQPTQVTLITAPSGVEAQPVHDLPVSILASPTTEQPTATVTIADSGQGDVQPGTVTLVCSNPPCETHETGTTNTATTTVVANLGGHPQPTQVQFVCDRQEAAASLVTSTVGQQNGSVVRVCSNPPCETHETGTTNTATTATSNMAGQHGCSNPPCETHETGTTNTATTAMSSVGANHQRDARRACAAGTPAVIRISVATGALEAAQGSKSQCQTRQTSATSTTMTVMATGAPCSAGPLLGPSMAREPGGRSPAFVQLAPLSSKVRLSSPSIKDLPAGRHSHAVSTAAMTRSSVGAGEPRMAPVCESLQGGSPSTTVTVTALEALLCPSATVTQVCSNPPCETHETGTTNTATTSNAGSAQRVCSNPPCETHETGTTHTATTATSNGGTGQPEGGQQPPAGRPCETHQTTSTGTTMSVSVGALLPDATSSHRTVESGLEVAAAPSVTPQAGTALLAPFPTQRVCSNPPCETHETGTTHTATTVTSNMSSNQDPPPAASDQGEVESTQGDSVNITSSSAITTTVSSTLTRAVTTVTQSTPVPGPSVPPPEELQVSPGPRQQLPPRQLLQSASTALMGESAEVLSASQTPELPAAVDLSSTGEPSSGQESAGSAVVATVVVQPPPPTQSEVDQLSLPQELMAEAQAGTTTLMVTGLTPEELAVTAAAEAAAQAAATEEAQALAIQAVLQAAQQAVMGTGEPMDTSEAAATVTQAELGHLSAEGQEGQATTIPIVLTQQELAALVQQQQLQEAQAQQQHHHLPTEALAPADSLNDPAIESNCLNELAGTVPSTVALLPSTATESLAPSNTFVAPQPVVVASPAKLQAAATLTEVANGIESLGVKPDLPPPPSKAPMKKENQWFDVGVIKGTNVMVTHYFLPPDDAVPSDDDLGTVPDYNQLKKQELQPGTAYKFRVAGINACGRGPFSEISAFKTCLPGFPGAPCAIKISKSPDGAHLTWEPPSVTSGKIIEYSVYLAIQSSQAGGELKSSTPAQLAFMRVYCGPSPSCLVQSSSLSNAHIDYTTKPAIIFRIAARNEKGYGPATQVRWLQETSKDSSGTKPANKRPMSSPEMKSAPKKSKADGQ
Chain of cysteines in MDA-MB-231 and Ramos cells (Homo sapiens, UniProt Q00765) (Q00765 whole entry): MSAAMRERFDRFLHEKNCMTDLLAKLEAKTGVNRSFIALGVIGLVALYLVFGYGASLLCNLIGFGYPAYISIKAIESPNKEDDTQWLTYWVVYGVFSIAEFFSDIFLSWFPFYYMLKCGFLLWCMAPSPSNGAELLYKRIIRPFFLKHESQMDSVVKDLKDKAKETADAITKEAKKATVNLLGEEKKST
Chain of cysteines in MDA-MB-231 and Ramos cells (Homo sapiens, UniProt Q9UJW0) (Q9UJW0 whole entry): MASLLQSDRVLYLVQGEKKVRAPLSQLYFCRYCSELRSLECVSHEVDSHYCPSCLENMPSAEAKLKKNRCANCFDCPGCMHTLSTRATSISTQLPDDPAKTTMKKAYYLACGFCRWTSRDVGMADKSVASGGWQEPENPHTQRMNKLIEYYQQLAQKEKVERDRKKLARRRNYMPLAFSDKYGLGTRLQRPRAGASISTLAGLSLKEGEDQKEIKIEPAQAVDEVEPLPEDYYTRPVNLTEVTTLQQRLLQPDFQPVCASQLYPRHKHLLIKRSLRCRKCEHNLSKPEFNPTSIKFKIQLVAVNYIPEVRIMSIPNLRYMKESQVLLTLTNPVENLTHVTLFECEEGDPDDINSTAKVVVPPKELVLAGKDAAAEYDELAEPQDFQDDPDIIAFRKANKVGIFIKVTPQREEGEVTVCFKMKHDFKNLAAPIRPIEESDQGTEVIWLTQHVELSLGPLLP
Chain of cysteines in MDA-MB-231 and Ramos cells (Homo sapiens, UniProt P68366) (P68366 whole entry): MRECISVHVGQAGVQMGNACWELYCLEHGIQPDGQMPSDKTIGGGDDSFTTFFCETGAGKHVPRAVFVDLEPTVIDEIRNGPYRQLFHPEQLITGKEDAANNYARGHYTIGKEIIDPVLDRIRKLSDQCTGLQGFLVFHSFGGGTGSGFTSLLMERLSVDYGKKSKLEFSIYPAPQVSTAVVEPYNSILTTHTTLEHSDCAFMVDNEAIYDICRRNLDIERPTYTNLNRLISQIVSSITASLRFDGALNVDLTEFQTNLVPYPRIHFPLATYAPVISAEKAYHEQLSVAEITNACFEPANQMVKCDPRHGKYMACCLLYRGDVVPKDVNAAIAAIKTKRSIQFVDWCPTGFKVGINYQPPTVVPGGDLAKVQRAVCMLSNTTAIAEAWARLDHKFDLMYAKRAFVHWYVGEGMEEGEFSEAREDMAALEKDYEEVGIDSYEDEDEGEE

CC(C)CCOCCNC(=O)CCl [compound 27]
isoTOP-ABPP ratio Q14980_C961 [1]: 2.4 | isoTOP-ABPP ratio Q00765_C18 ([2]; 200 μM, insitu, 231): 1.1 | isoTOP-ABPP ratio Q2NL82_C126 ([3]; 200 μM, insitu, 231): 0.4 | isoTOP-ABPP ratio Q8WV74_C207 ([4]; 200 μM, insitu, 231): 2.2 | isoTOP-ABPP ratio P68366_C54 ([5]; 200 μM, insitu, 231): 0.3 | isoTOP-ABPP ratio Q9UJW0_C258 ([6]; 200 μM, insitu, 231): 0.8

COc1cc2c(cc1OC)CN(C(=O)CCl)CC2 [compound 8]
isoTOP-ABPP reactivity Q00765_018 REEP5 ([2]; 200 μM, insitu, 231): 2.7 | isoTOP-ABPP reactivity Q8WV74_C207 NUDT8 ([4]; 200 μM, insitu, 231): 20.0 | isoTOP-ABPP reactivity P68366_C54 TUBA4A ([5]; 200 μM, insitu, 231): 0.9 | isoTOP-ABPP reactivity Q9UJW0_C258 DCTN4 ([6]; 200 μM, insitu, 231): 20.0

COc1ccc(C2CC(c3cccs3)=NN2C(=O)CCl)cc1 (stereo not drawn) [compound 4]
isoTOP-ABPP reactivity Q00765_018 REEP5 ([2]; 100 μM in situ 231): 20.0 | isoTOP-ABPP reactivity Q2NL82_C126 TSR1 ([3]; 100 μM in situ 231): 13.8 | isoTOP-ABPP reactivity Q8WV74_C207 NUDT8 ([4]; 100 μM in situ 231): 20.0 | isoTOP-ABPP reactivity P68366_C54 TUBA4A ([5]; 100 μM in situ 231): 0.8 | isoTOP-ABPP reactivity Q96FX7_C209 TRMT61A ([7]; 100 μM in situ 231): 2.4

O=C(CCl)Nc1cccc2ncccc12 [compound 51]
isoTOP-ABPP ratio Q9NY27_C22 ([8]; 200 μM, insitu, 231): 2.2 | isoTOP-ABPP ratio Q2NL82_C126 ([3]; 200 μM, insitu, 231): 1.9 | isoTOP-ABPP ratio Q9UJW0_C258 ([6]; 200 μM, insitu, 231): 1.1

O=C(CCl)N1CCN(S(=O)(=O)c2ccccc2F)CC1 [compound 10]
isoTOP-ABPP ratio Q9NY27_C22 ([8]; 200 μM, insitu, ramos): 2.1 | isoTOP-ABPP ratio Q00765_C18 ([2]; 200 μM, insitu, 231): 4.2 | isoTOP-ABPP ratio, cysteine P51610_C1872 ([9]; 200 μM, insitu, 231): 1.5 | isoTOP-ABPP ratio, cysteine Q2NL82_C126 ([3]; 200 μM, insitu, 231): 4.9 | isoTOP-ABPP ratio, cysteine Q8WV74_C207 ([4]; 200 μM, insitu, ramos): 20.0 | isoTOP-ABPP ratio P68366_C54 ([5]; 200 μM, insitu, 231): 7.9 | isoTOP-ABPP ratio P68366_C54 ([5]; 200 μM, insitu, ramos): 2.8 | isoTOP-ABPP ratio P46109_C249 [10]; 231: 20.0 | isoTOP-ABPP ratio Q9UJW0_C258 ([6]; 200 μM, insitu, 231): 20.0 | isoTOP-ABPP ratio Q9UJW0_C258 ([6]; 200 μM, insitu, ramos): 20.0

CC1CCc2ccccc2N1C(=O)CCl (stereo not drawn) [compound 45]
isoTOP-ABPP ratio Q9NY27_C22 ([8]; 200 μM, insitu, 231): 20.0 | isoTOP-ABPP ratio Q00765_C18 ([2]; 200 μM, insitu, 231): 20.0 | isoTOP-ABPP ratio Q2NL82_C126 ([3]; 200 μM, insitu, 231): 20.0 | isoTOP-ABPP ratio Q8WV74_C207 ([4]; 200 μM, insitu, 231): 20.0 | isoTOP-ABPP ratio P46109_C249 [10]; 231: 20.0 | isoTOP-ABPP ratio Q96FX7_C209 ([7]; 200 μM, insitu, 231): 20.0 | isoTOP-ABPP ratio Q9UJW0_C258 ([6]; 200 μM, insitu, 231): 2.7

Cc1ccc(C=C(C#N)C(=O)NCCN2CCOCC2)cc1 [compound 41]
isoTOP-ABPP ratio Q9NY27_C22 ([8]; 200 μM, insitu, 231): 0.8 | isoTOP-ABPP ratio P51610_C1872 ([9]; 200 μM, insitu, 231): 0.5 | isoTOP-ABPP ratio Q2NL82_C126 ([3]; 200 μM, insitu, 231): 0.8 | isoTOP-ABPP ratio Q8WV74_C207 ([4]; 200 μM, insitu, 231): 0.9 | isoTOP-ABPP ratio Q9UJW0_C258 ([6]; 200 μM, insitu, 231): 0.7

COc1ccc2c(c1)CCCN2C(=O)CCl [compound 2]
isoTOP-ABPP reactivity P51610_C1872 HCFC1 ([9]; 200 μM, insitu, 231): 4.1 | isoTOP-ABPP reactivity Q2NL82_C126 TSR1 ([3]; 200 μM, insitu, 231): 20.0 | isoTOP-ABPP reactivity Q8WV74_C207 NUDT8 ([4]; 200 μM, insitu, 231): 20.0 | isoTOP-ABPP reactivity P68366_C54 TUBA4A ([5]; 200 μM, insitu, 231): 9.7 | isoTOP-ABPP reactivity P46109_0249 CRKL [10]; 231: 20.0 | isoTOP-ABPP reactivity Q96FX7_C209 TRMT61A ([7]; 200 μM, insitu, 231): 20.0 | isoTOP-ABPP reactivity Q9UJW0_C258 DCTN4 ([6]; 200 μM, insitu, 231): 4.0

C=CC(=O)Nc1cc(F)c(N2CCN(C(=O)OC(C)(C)C)CC2)c(F)c1 [compound 38]
isoTOP-ABPP ratio Q9NY27_C22 ([8]; 200 μM, insitu, 231): 1.0 | isoTOP-ABPP ratio Q14980_C961 [1]: 2.6 | isoTOP-ABPP ratio P51610_C1872 ([9]; 200 μM, insitu, 231): 1.3 | isoTOP-ABPP ratio Q2NL82_C126 ([3]; 200 μM, insitu, 231): 0.9 | isoTOP-ABPP ratio P68366_C54 ([5]; 200 μM, insitu, 231): 2.0 | isoTOP-ABPP ratio P46109_C249 [10]; 231: 1.6 | isoTOP-ABPP ratio Q96FX7_C209 ([7]; 200 μM, insitu, 231): 1.0

O=C(CCl)NC(=O)NC12CC3CC(CC(C3)C1)C2 [compound 12]
isoTOP-ABPP ratio Q9NY27_C22 ([8]; 200 μM, insitu, 231): 20.0 | isoTOP-ABPP ratio, cysteine Q14980_C961 [1]: 20.0 | isoTOP-ABPP ratio Q00765_C18 ([2]; 200 μM, insitu, 231): 20.0 | isoTOP-ABPP ratio, cysteine Q2NL82_C126 ([3]; 200 μM, insitu, 231): 20.0 | isoTOP-ABPP ratio P46109_C249 [10]; 231: 20.0 | isoTOP-ABPP ratio, cysteine Q96FX7_C209 ([7]; 200 μM, insitu, 231): 20.0 | isoTOP-ABPP ratio Q9UJW0_C258 ([6]; 200 μM, insitu, 231): 20.0

C=CC(=O)N(Cc1cccnc1)c1cc(C(F)(F)F)cc(C(F)(F)F)c1 [compound 31]
isoTOP-ABPP ratio Q14980_C961 [1]: 1.1 | isoTOP-ABPP ratio P68366_C54 ([5]; 200 μM, insitu, ramos): 1.1

Cn1cc(S(=O)(=O)N2CCOCC2)cc1C(=O)NC(=O)CCl [compound 11]
isoTOP-ABPP ratio Q9NY27_C22 ([8]; 100 μM in situ 231): 2.3 | isoTOP-ABPP ratio Q00765_C18 ([2]; 100 μM in situ 231): 0.8 | isoTOP-ABPP ratio, cysteine P51610_C1872 ([9]; 100 μM in situ 231): 0.5 | isoTOP-ABPP ratio P68366_C54 ([5]; 100 μM in situ 231): 0.3 | isoTOP-ABPP ratio Q9UJW0_C258 ([6]; 100 μM in situ 231): 20.0

O=C(CCl)NCCc1c[nH]c2ccccc12 [compound 13]
isoTOP-ABPP ratio Q9NY27_C22 ([8]; 200 μM, insitu, ramos): 1.5 | isoTOP-ABPP ratio, cysteine Q14980_C961 [1]: 2.2 | isoTOP-ABPP ratio Q00765_C18 ([2]; 200 μM, insitu, 231): 1.2 | isoTOP-ABPP ratio, cysteine P51610_C1872 ([9]; 200 μM, insitu, 231): 1.0 | isoTOP-ABPP ratio, cysteine Q8WV74_C207 ([4]; 200 μM, insitu, 231): 13.1 | isoTOP-ABPP ratio P68366_C54 ([5]; 200 μM, insitu, ramos): 1.3 | isoTOP-ABPP ratio P46109_C249 ([10]; ramos): 1.8 | isoTOP-ABPP ratio, cysteine Q96FX7_C209 ([7]; 200 μM, insitu, 231): 2.1 | isoTOP-ABPP ratio, cysteine Q96FX7_C209 ([7]; 200 μM, insitu, ramos): 6.8 | isoTOP-ABPP ratio Q9UJW0_C258 ([6]; 200 μM, insitu, ramos): 1.9

O=C(CCl)N1CCN(CC(=O)N2CCOCC2)CC1 [compound 29]
isoTOP-ABPP ratio Q9NY27_C22 ([8]; 200 μM, insitu, ramos): 1.7 | isoTOP-ABPP ratio Q00765_C18 ([2]; 200 μM, insitu, ramos): 1.4 | isoTOP-ABPP ratio P68366_C54 ([5]; 200 μM, insitu, ramos): 1.0 | isoTOP-ABPP ratio P46109_C249 ([10]; ramos): 4.2 | isoTOP-ABPP ratio Q9UJW0_C258 ([6]; 200 μM, insitu, ramos): 20.0

O=C(CCl)NC12CC3CC(CC(C3)C1)C2 [compound 21]
isoTOP-ABPP ratio, cysteine Q14980_C961 [1]: 3.7 | isoTOP-ABPP ratio Q00765_C18 ([2]; 200 μM, insitu, 231): 0.7 | isoTOP-ABPP ratio, cysteine Q2NL82_C126 ([3]; 200 μM, insitu, 231): 1.5 | isoTOP-ABPP ratio P68366_C54 ([5]; 200 μM, insitu, 231): 0.8 | isoTOP-ABPP ratio P46109_C249 [10]; 231: 0.9 | isoTOP-ABPP ratio, cysteine Q96FX7_C209 ([7]; 200 μM, insitu, 231): 2.0

O=C(CCl)N1CCC(Cc2ccccc2)CC1 [compound 9]
isoTOP-ABPP reactivity P46109_0249 CRKL [10]; 231: 6.7
